Tests used:
Test in all cases: relative viability (nuclei count vs DMSO), 5 days (fraction); higher = more cells survive
[1] = compound: Cc1ccc(C(=O)Nc2cccc(C(F)(F)F)c2)cc1Nc1cncc(C(N)=O)c1 [ALW-II-49-7] + O=C(c1cc(Cc2n[nH]c(=O)c3ccccc23)ccc1F)N1CCN(C(=O)C2CC2)CC1 [Olaparib] (partner 8 µM)
Procedure, shortened: (§1)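 Relative viability divides the nuclei count in treated wells by that in vehicle wells. Lung cancer cell lines were seeded in 1536-well plates, dosed by pin tool the next day, and fixed and stained after 5 days in one step with final 0.05% Triton X-100, 1% formaldehyde and 1 ug/ml Hoechst. Dosing was a single drug or a fixed anchor-drug dose plus five library-drug doses (not always all listed) in √10 steps, and values are medians of duplicate plates imaged at 4×.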

[2] = compound: Cc1nc(Nc2ncc(C(=O)Nc3c(C)cccc3Cl)s2)cc(N2CCN(CCO)CC2)n1 [Dasatinib] + C[C@@H](Oc1cc(-c2cnn(C3CCNCC3)c2)cnc1N)c1c(Cl)ccc(F)c1Cl [Crizotinib] (partner 1 µM)
Procedure, shortened: as §1

[3] = compound: C1CC1C(=O)NC2=NNC3=C2C=CC(=C3)C4=CC(=CC=C4)C(=O)NC5CC5 [XMD13-2] + COc1cc2c(Oc3ccc(NC(=O)C4(C(=O)Nc5ccc(F)cc5)CC4)cc3F)ccnc2cc1OCCCN1CCOCC1 [Foretinib] (partner 0.25 µM)
Procedure, shortened: as §1

[4] = compound: Cc1nc(Nc2ncc(C(=O)Nc3c(C)cccc3Cl)s2)cc(N2CCN(CCO)CC2)n1 [Dasatinib] + CC(=O)Nc1cccc(-n2c(=O)n(C3CC3)c(=O)c3c(Nc4ccc(I)cc4F)n(C)c(=O)c(C)c32)c1 [Trametinib] (partner 0.02 µM)
Procedure, shortened: as §1

Row | Cell Line | relative viability ([1]; first compound 0.08 µM) | relative viability ([1]; first compound 0.253 µM) | relative viability ([1]; first compound 0.8 µM) | relative viability ([1]; first compound 2.53 µM) | relative viability ([1]; first compound 8 µM) | relative viability ([2]; first compound 0.005 µM) | relative viability ([2]; first compound 0.01581 µM) | relative viability ([2]; first compound 0.05 µM) | relative viability ([2]; first compound 0.1581 µM) | relative viability ([2]; first compound 0.5 µM) | relative viability ([3]; first compound 0.05 µM) | relative viability ([3]; first compound 0.1581 µM) | relative viability ([3]; first compound 0.5 µM) | relative viability ([3]; first compound 1.581 µM) | relative viability ([3]; first compound 5 µM) | relative viability ([4]; first compound 0.005 µM) | relative viability ([4]; first compound 0.01581 µM) | relative viability ([4]; first compound 0.05 µM) | relative viability ([4]; first compound 0.1581 µM) | relative viability ([4]; first compound 0.5 µM)
1 | NCI-H1944 | 0.451 | 0.391 | 0.381 | 0.375 | 0.374 | 1.06 | 0.847 | 0.779 | 0.327 | 0.233 | 0.898 | 0.886 | 0.935 | 1.04 | 0.946 | 0.389 | 0.367 | 0.348 | 0.218 | 0.153
2 | NCI-H1975 | 0.739 | 0.845 | 0.793 | 0.682 | 0.683 | 0.858 | 0.852 | 0.612 | 0.404 | 0.272 | 1.06 | 0.939 | 0.96 | 0.978 | 0.982 | 0.364 | 0.25 | 0.272 | 0.232 | 0.177
3 | NCI-H1993 | 1.01 | 1.02 | 0.928 | 1.06 | 1.32 | 0.881 | 0.658 | 0.579 | 0.501 | 0.465 | 0.838 | 0.689 | 0.775 | 0.785 | 0.507 | 0.418 | 0.396 | 0.532 | 0.353 | 0.525
4 | NCI-H2009 | 0.601 | 0.654 | 0.665 | 0.422 | 0.428 | 0.947 | 0.936 | 0.684 | 0.314 | 0.141 | 1.3 | 1.2 | 1.2 | 1.17 | 1.3 | 0.26 | 0.173 | 0.184 | 0.12 | 0.0876
5 | NCI-H2023 | 0.458 | 0.543 | 0.649 | 0.451 | 0.424 | 0.491 | 0.492 | 0.376 | 0.281 | 0.26 | 0.82 | 0.825 | 0.791 | 0.798 | 0.864 | 0.487 | 0.49 | 0.432 | 0.364 | 0.326
6 | NCI-H2085 | 0.701 | 0.776 | 0.756 | 0.844 | 0.763 | 0.93 | 0.806 | 0.408 | 0.193 | 0.158 | 0.971 | 0.943 | 0.963 | 0.857 | 0.923 | 0.485 | 0.297 | 0.195 | 0.214 | 0.159
7 | NCI-H2087 | 0.583 | 0.569 | 0.463 | 0.578 | 0.514 | 0.858 | 0.938 | 0.946 | 0.863 | 0.639 | 1.4 | 1.27 | 1.22 | 1.08 | 0.727 | 0.291 | 0.2 | 0.178 | 0.124 | 0.101
8 | NCI-H2126 | 0.823 | 0.882 | 0.979 | 0.891 | 0.87 | 0.966 | 0.9 | 0.915 | 0.607 | 0.369 | 1.16 | 1.18 | 1.16 | 1.29 | 1.1 | 0.641 | 0.425 | 0.551 | 0.424 | 0.309

— the supplement of paper PMC10307832
